In one assay the target is T1, human ALX receptor (Homo sapiens, UniProt P25090).
T1 construct: expressed in transfected cells; host or cells: HEK293 (HEK293-hALXR-Gα16)
T1 sequence (P25090 1-351): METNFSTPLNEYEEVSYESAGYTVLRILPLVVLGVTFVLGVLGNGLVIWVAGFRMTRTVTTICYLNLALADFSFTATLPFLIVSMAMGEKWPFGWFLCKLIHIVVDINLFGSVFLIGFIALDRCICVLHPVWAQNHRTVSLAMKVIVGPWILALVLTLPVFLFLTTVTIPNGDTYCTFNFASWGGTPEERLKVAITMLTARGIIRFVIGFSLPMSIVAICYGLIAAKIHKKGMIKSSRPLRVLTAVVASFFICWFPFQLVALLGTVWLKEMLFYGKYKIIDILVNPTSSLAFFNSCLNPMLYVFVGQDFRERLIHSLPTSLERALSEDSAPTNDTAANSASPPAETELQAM
Kind of assay: Intracellular calcium measurements (FLIPR), agonistic activity in HEK293-hALXR-Gα16 cells. The assay is classed as cell-based. The note with it: Fluo-4 calcium FLIPR, normalized to WKYMVm 10 nM. The method, boiled down:
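Agonist-induced calcium flux was recorded by FLIPR (488/540 nm) in HEK293-hALXR-Gα16 cells pre-loaded with Fluo-4 AM (1 μM, 60 min, 37°C). Peak signal above baseline, after subtracting buffer addition, was expressed relative to WKYMVm at 10 nM final.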
On the technique in general: Calcium flux is commonly read through the fluorescence of an indicator in the cells.

In the next assay the target is T2, human FPRL2 (Homo sapiens, UniProt P25089).
T2 construct: expressed in transfected cells; host or cells: HEK293 (HEK293-hFPRL2-Gα16)
T2 sequence (P25089 1-353): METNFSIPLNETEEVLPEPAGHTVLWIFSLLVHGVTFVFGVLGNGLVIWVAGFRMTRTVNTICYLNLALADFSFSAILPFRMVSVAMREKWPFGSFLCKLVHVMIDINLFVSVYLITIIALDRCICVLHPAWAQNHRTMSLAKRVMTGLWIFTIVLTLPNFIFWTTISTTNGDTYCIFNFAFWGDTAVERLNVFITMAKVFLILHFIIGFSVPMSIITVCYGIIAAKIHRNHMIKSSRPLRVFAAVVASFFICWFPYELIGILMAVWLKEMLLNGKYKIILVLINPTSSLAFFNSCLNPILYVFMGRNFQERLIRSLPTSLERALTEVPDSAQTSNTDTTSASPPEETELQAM
In words: Intracellular calcium measurements (FLIPR), agonistic activity in HEK293-hFPRL2-Gα16 cells. The note with it: Fluo-4 calcium FLIPR, normalized to GLY14-Humanin 100 nM. The assay is classed as cell-based. The method, boiled down: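 Peak values after baseline subtraction are expressed relative to 100 nM Gly14-Humanin; compounds diluted in assay buffer from 10 mM DMSO stocks.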

Molecules are shown by their SMILES.

As to `NC(=O)CCNC(=O)[C@H]1[C@H](C(=O)Nc2ccc(Br)cc2)[C@@H]2CC[C@H]1C21CC1` (racemic) [Example 102, (5R*)—N^5-(4-Bromophenyl)-(6R*)—N^6-(2-carbamoyl-ethyl)-(4S*,7R*)-[4,7-ethylene-spiro[2.4]heptane]-5,6-dicarboxamide], the EC50 is 0.46 nM at human ALX receptor and > 25000 nM at human FPRL2.

As for `O=C(Nc1ccc(Br)cc1)C1C(C(=O)NC2CCC(CN3CCCC3)CC2)C2C=CC1C21CC1` (single isomer, unassigned) [Example 222], the EC50 on human ALX receptor was determined as 208 nM; on human FPRL2, 398 nM.

Regarding `O=C(NCc1ccoc1)[C@H]1[C@H](C(=O)Nc2ccc(Br)cc2)[C@@H]2C=C[C@H]1C21CC1` (racemic) [Example 50, (5R*)—N^5-(4-Bromophenyl)-(6R*)—N^6-(furan-3-yl-methyl)-(4S*,7R*)-[4,7-ethenylene-spiro[2.4]heptane]-5,6-dicarboxamide], the results for the EC50 at human ALX receptor and at human FPRL2 were 13 nM and 1080 nM, respectively.

On to `CC(=O)c1csc(CNC(=O)[C@H]2[C@H](C(=O)NCCCN(C)C)[C@H]3C=C[C@@H]2C32CC2)n1` (racemic) [Example 267, (5R*)—N^5-(4-Acetyl-thiazol-2-yl-methyl)-(6R*)—N^6-(3-dimethylamino-propyl)-(4S*,7R*)-[4,7-ethenylene-spiro[2.4]heptane]-5,6-dicarboxamide], for which the EC50 on human ALX receptor worked out at 288 nM; at human FPRL2, 15300 nM.

On to `O=C(NCC1CCCN1)C1C(C(=O)Nc2ccc(Br)cc2)C2C=CC1C21CC1` (mixture of isomers) [Example 18, (5R*)—N^5-(4-Bromophenyl)-(6R*)—N^6-(2-pyrrolidinyl-methyl)-(4S*,7R*)-[4,7-ethenylene-spiro[2.4]heptane]-5,6-dicarboxamide], for which the EC50 on human ALX receptor was 2 nM; at human FPRL2, 551 nM.

Regarding `O=C(NCCCCN1CCCC1)[C@H]1[C@H](C(=O)NCc2cc(Cl)nc(Cl)c2)[C@@H]2C=C[C@H]1C21CC1` (racemic) [Example 367, (5R*)—N^5-[(2,6-Dichloropyridin-4-yl)methyl]-(6R*)—N^6-(4-pyrrolidino-butyl)-(4S*,7R*)-[4,7-ethenylene-spiro[2.4]heptane]-5,6-dicarboxamide], the EC50 is 10600 nM on human ALX receptor and 644 nM at human FPRL2.

Regarding `O=C(NCC1CCNCC1)C1C(C(=O)Nc2ncc(Br)s2)C2C=CC1C21CC1` [Example 324, (5R)—N^5-(5-Bromo-thiazol-2-yl)-(6R)—N^6-(piperidin-4-yl-methyl)-(4S,7R)-[4,7-ethenylene-spiro[2.4]heptane]-5,6-dicarboxamide], the EC50 on human ALX receptor was 5.7 nM; at human FPRL2, 1540 nM.

On to `O=C(Nc1ncc(Br)s1)C1C(C(=O)NC2CCNC2)C2CCC1C21CC1` [Example 412, (5R)—N^5-(5-Bromothiazol-2-yl)-(6R)—N^6-(pyrrolidin-3-yl)-(4S,7R)-[4,7-ethylene-spiro[2.4]heptane]-5,6-dicarboxamide], for which the 50% effective concentration (EC50) at human ALX receptor came to 8.9 nM; at human FPRL2, 1020 nM.

As for `O=C(NCCCCN1CCCC1)[C@H]1[C@H](C(=O)Nc2cnc(Br)c(F)c2)[C@@H]2C=C[C@H]1C21CC1` [Example 338, (5R)—N^5-(2-Bromo-3-fluoro-pyridin-5-yl)-(6R)—N^6-(4-pyrrolidino-butyl)-(4S,7R)-[4,7-ethenylene-spiro[2.4]heptane]-5,6-dicarboxamide], the concentration for a half-maximal effect (EC50) was determined as 168 nM on human ALX receptor and 139 nM at human FPRL2.

With `O=C(NCCN1CCNC1=O)[C@H]1[C@H](C(=O)Nc2ccc(Br)cc2)[C@@H]2C=C[C@H]1C21CC1` (racemic) [Example 29, (5R*)—N^5-(4-Bromophenyl)-(6R*)—N^6-(2-imidazolidin-2-on-1-yl-ethyl)-(4S*,7R*)-[4,7-ethenylene-spiro[2.4]heptane]-5,6-dicarboxamide], the EC50 at human ALX receptor amounted to 4.8 nM; on human FPRL2, 5580 nM.

On to `O=C(NCCCCN1CCCC1)[C@H]1[C@H](C(=O)Nc2nnc(C(F)(F)F)s2)[C@@H]2C=C[C@H]1C21CC1` (racemic) [Example 257, (5R*)—N^5-(5-Trifluoromethyl-1,3,4-thiadiazol-2-yl)-(6R*)—N^6-(4-pyrrolidin-1-yl-butyl)-(4S*,7R*)-[4,7-ethenylene-spiro[2.4]heptane]-5,6-dicarboxamide], for which the half-maximal effective concentration (EC50) at human ALX receptor was found to be 6010 nM; on human FPRL2, 167 nM.

Take `O=C(NCCCCN1CCCC1)[C@H]1[C@H](C(=O)NCCc2ccc(Cl)cc2Cl)[C@@H]2C=C[C@H]1C21CC1` [Example 391, (5R)—N^5-(2-(2,4-Dichlorophenyl)ethyl)-(6R)—N^6-(4-pyrrolidino-butyl)-(4S,7R)-[4,7-ethenylene-spiro[2.4]heptane]-5,6-dicarboxamide]: the values for the EC50 at human ALX receptor and on human FPRL2 were 9710 nM and 3.8 nM, respectively.

For the molecule `O=C(Nc1ccc(Br)cc1)C1C(C(=O)NC2CCC(CN3CCCC3)CC2)C2C=CC1C21CC1` (single isomer, unassigned) [Example 218], the EC50 on human ALX receptor turned out to be 2.1 nM; on human FPRL2, 356 nM.

`O=C(CCCN1CCCC1=O)NC[C@H]1[C@H](C(=O)Nc2ccc(Br)cc2)[C@@H]2C=C[C@H]1C21CC1` (racemic) [Example 161, (5R*)—N^5-(4-Bromo-phenyl)-(6R*)-6-[(4-(2-oxo-pyrrolidin-1-yl)-butyrylamino)-methyl]-(4S*,7R*)-[4,7-ethenylene-spiro[2.4]heptane]-5-carboxamide]: the EC50 turned out to be 47 nM on human ALX receptor and 7920 nM on human FPRL2.

For the molecule `COc1ccc(NC(=O)[C@H]2[C@H](C(=O)NCCC(=O)O)[C@H]3C=C[C@@H]2C32CC2)cc1` [Example 287, (5R)—N^5-(4-Methoxyphenyl)-(6R)—N^6-(3-hydroxyl-3-oxopropyl)-(4S,7R)-[4,7-ethenylene-spiro[2.4]heptane]-5,6-dicarboxamide], the concentration for a half-maximal effect (EC50) on human ALX receptor is 516 nM; on human FPRL2, > 25000 nM.

Take `O=C(NCCCCN1CCCC1)[C@H]1[C@H](C(=O)NCc2ccc(F)cc2Br)[C@@H]2C=C[C@H]1C21CC1` (racemic) [Example 353, (5R*)—N^5-(2-Bromo-4-fluorophenyl-methyl)-(6R*)—N^6-(4-pyrrolidino-butyl)-(4S*,7R*)-[4,7-ethenylene-spiro[2.4]heptane]-5,6-dicarboxamide]: the values for the EC50 at human ALX receptor and on human FPRL2 were 6900 nM and 256 nM, respectively.

With `COc1ccccc1CCNC(=O)[C@H]1[C@H](C(=O)NCCCCN2CCCC2)[C@H]2C=C[C@@H]1C21CC1` (racemic) [Example 158, (5R*)—N^5-(2-(2-Methoxy-phenyl)-ethyl)-(6R*)—N^6-(4-pyrrolidin-1-yl-butyl)-(4S*,7R*)-[4,7-ethenylene-spiro[2.4]heptane]-5,6-dicarboxamide], the EC50 was > 25000 nM on human ALX receptor and 204 nM on human FPRL2.

For the molecule `O=C(NCCCCN1CCC(F)(F)C1)[C@H]1[C@H](C(=O)Nc2ccc(Br)cc2)[C@@H]2C=C[C@H]1C21CC1` [Example 401, (5R)—N^5-(4-Bromophenyl)-(6R)—N^6-(4-(3,3-difluoropyrrolidin-1-yl)butyl)-(4S,7R)-[4,7-ethenylene-spiro[2.4]heptane]-5,6-dicarboxamide], the figures for the EC50 on human ALX receptor and at human FPRL2 were 4.4 nM and 516 nM, respectively.

In the case of `CCn1nc(CCNC(=O)[C@H]2[C@H](C(=O)Nc3ccc(Br)cc3)[C@@H]3C=C[C@H]2C32CC2)cc1C` (racemic) [Example 62, (5R*)—N^5-(4-Bromophenyl)-(6R*)—N^6-(2-(1-ethyl-5-methyl-1H-pyrazol-3-yl)-ethyl)-(4S*,7R*)-[4,7-ethenylene-spiro[2.4]heptane]-5,6-dicarboxamide], the values for the EC50 at human ALX receptor and on human FPRL2 were 24 nM and 363 nM, respectively.

In the case of `NC(=O)CCNC(=O)[C@H]1[C@H](C(=O)Nc2ccc(Cl)nc2)[C@@H]2CC[C@H]1C21CC1` [Example 298, (5R)—N^5-(2-Chloro-pyridin-5-yl)-(6R)—N^6-(3-amino-3-oxopropyl)-(4S,7R)-[4,7-ethylene-spiro[2.4]heptane]-5,6-dicarboxamide], the figures for the EC50 on human ALX receptor and on human FPRL2 were 24 nM and 4070 nM, respectively.

Turning to `O=C(NCCCCN1CCCC1)[C@H]1[C@H](C(=O)NCc2ccc(OC(F)(F)F)cc2)[C@@H]2C=C[C@H]1C21CC1` (racemic) [Example 232, (5R*)—N^5-(4-Trifluoromethoxy-phenyl-methyl)-(6R*)—N^6-(4-pyrrolidin-1-yl-butyl)-(4S*,7R*)-[4,7-ethenylene-spiro[2.4]heptane]-5,6-dicarboxamide], the EC50 on human ALX receptor amounted to 1260 nM; on human FPRL2, 112 nM.

Broadly, the EC50 is the midpoint of the concentration-response curve.

Source of the values: patent US8563714B2, “Bridged spiro [2.4] heptane derivatives as ALX receptor and/or FPRL2 agonists” (Actelion Pharmaceuticals Ltd., priority 2009, dated 2013).
